Measurements: patent publication US20120128777A1, “COMPOSITIONS CONTAINING LIPID MICRO- OR NANOPARTICLES FOR THE ENHANCEMENT OF THE DERMAL ACTION OF SOLID PARTICLES” (PHARMASOL GMBH, priority 2008, published 2012)

System: skin
Conditions: 50 volunteers, undiluted, patch 48 hours, read after 48 hours and after 72 hours

## CCCCCCCCCCCCOS(=O)(=O)[O-].[Na+] [SDS, Sodium dodecyl sulphate]
  positive reactions: 11 subjects
